# From ChEMBL document CHEMBL4602617, “Discovery and optimization of heteroaryl piperazines as potent and selective PI3Kδ inhibitors” (Bioorg Med Chem Lett, 2020)
# What was measured:
# [1] = biological target: T1, Phosphatidylinositol 4,5-bisphosphate 3-kinase catalytic subunit delta isoform (Homo sapiens, UniProt O00329); experiment: Inhibition of PI3K delta in human whole blood assessed as inhibition of anti-IgE-stimulated CysLt release in basophils preincubated for 30 mins followed by anti-IgE stimulation and measured after 20 mins; assay type: tissue-based
# T1 sequence (O00329 whole entry): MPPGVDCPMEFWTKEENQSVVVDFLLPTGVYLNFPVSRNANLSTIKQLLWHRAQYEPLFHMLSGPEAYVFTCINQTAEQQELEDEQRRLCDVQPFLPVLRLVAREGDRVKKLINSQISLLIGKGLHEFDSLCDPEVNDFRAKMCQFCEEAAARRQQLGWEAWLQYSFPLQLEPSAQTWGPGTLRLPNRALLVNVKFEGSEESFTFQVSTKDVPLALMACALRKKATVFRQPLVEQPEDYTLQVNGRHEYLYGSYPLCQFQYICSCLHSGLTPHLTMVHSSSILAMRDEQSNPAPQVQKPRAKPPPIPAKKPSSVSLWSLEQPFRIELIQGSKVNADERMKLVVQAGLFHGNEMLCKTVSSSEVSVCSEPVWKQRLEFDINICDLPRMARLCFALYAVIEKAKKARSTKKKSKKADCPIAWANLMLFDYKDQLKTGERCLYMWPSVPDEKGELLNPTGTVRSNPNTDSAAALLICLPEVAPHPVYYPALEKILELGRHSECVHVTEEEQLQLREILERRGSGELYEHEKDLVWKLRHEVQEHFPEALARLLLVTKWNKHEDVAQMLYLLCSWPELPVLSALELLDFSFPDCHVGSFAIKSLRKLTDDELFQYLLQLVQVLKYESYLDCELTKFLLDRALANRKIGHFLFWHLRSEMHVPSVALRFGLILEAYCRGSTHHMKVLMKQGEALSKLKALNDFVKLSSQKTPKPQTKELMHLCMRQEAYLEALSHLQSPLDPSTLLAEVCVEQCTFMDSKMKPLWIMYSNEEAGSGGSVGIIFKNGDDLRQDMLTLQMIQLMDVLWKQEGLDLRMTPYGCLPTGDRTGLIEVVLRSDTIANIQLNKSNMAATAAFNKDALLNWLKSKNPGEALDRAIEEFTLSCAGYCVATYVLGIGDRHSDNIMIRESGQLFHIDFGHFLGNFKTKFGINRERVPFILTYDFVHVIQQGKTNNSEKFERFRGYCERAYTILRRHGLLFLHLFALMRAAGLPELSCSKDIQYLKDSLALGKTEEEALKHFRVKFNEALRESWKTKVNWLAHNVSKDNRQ
# [2] = Half life in dog at 0.5 mg/kg, iv 1 mg/kg, po; assay type: ADME, organism-based, Canis lupus familiaris; conditions: in vivo
# [3] = biological target: 5-hydroxytryptamine receptor 2C (Homo sapiens) (UniProt P28335); experiment: Displacement of [3H]mesulergine from human recombinant 5HT2C receptor expressed in CHOK1 cells at 10 uM incubated for 60 mins by radiometric scintillation assay relative to control; assay type: cell-based; conditions: CHO-K1
# [4] = biological target: Calcium/calmodulin-dependent protein kinase type II subunit beta (Homo sapiens, UniProt Q13554); experiment: Inhibition of recombinant full length human His-tagged CAMK2beta expressed in baculovirus expression system using serine/threonine-17 peptide as substrate incubated for 60 mins in presence of ATP by Z'-LYTE assay
# Ephrin type-B receptor 1 = Ephrin type-B receptor 1 (Homo sapiens, UniProt P54762); experiment: Inhibition of recombinant human GST-tagged EPHB1 catalytic domain expressed in baculovirus expression system using tyrosine-2 peptide as substrate incubated for 60 mins in presence of ATP by Z'-LYTE assay
# Misshapen-like kinase 1 = Misshapen-like kinase 1 (Homo sapiens, UniProt Q8N4C8); experiment: Inhibition of recombinant human MINK1 catalytic domain expressed in baculovirus expression system using Ser/Thr 07 peptide as substrate after 1 hr in presence of ATP by Z'LYTE assay
# [5] = biological target: T1, Phosphatidylinositol 4,5-bisphosphate 3-kinase catalytic subunit delta isoform; experiment: Inhibition of PI3K delta (unknown origin) by Adapta assay
# [6] = biological target: Prostacyclin receptor (Homo sapiens) (UniProt P43119); experiment: Inhibition of human prostanoid IP receptor at 10 uM relative to control
# [7] = biological target: Prostaglandin E2 receptor EP1 subtype (Homo sapiens) (UniProt P34995); experiment: Displacement of [3H]prostaglandin E2 from full length human recombinant EP1 receptor expressed in HEK293 cells at 10 uM measured after 60 mins by radiometric scintillation analysis relative to control; assay type: cell-based
# Rattus norvegicus = species: Rattus norvegicus; experiment: Inhibition of rat kainate receptor at 10 uM relative to control
# [8] = biological target: Alpha-1A adrenergic receptor (Rattus norvegicus) (UniProt P43140); experiment: Displacement of [3H]prazosin from alpha1a adrenergic receptor in Wistar rat submaxillary gland membranes at 10 uM measured after 60 mins by scintillation counting method relative to control; assay type: cell membranes; conditions: Membrane
# Caspase-8 (Homo sapiens) = Caspase-8 (Homo sapiens) (UniProt Q14790); experiment: Inhibition of recombinant human caspase 8 (217 to end residues) expressed in Escherichia coli at 10 uM using Ac-IETD-AMC as substrate after 60 mins by spectrophotometric analysis relative to control
# [9] = biological target: DNA-dependent protein kinase catalytic subunit (Homo sapiens, UniProt P78527); experiment: Inhibition of recombinant human DNA-PK expressed in baculovirus expression system using serine/threonine-26 peptide as substrate incubated for 60 mins in presence of ATP by Z'-LYTE assay
# [10] = biological target: Tyrosine-protein kinase FRK (Homo sapiens, UniProt P42685); experiment: Inhibition of recombinant full length GST-tagged human FRK expressed in baculovirus expression system using tyrosine 1 as substrate after 1 hr in presence of ATP by ZYLTE assay
# [11] = biological target: Homeodomain-interacting protein kinase 3 (Homo sapiens, UniProt Q9H422); experiment: Inhibition of recombinant human His-tagged HIPK3 catalytic domain expressed in baculovirus expression system using serine/threonine-9 peptide as substrate incubated for 60 mins in presence of ATP by Z'-LYTE assay
# [12] = biological target: Serine/threonine-protein kinase D2 (Homo sapiens, UniProt Q9BZL6); experiment: Inhibition of recombinant full length human GST-tagged PRKD2 expressed in baculovirus expression system using serine/threonine-01 peptide as substrate incubated for 60 mins in presence of ATP by Z'-LYTE assay
# [13] = biological target: cAMP-dependent protein kinase catalytic subunit PRKX (Homo sapiens, UniProt P51817); experiment: Inhibition of recombinant full length human GST-tagged PRKX expressed in baculovirus expression system using serine/threonine-1 peptide as substrate incubated for 60 mins in presence of ATP by Z'-LYTE assay
# [14] = biological target: Proto-oncogene tyrosine-protein kinase receptor Ret (Homo sapiens, UniProt P07949); experiment: Inhibition of recombinant human GST-tagged RET cytoplasmic domain expressed in baculovirus expression system using tyr02 peptide as substrate incubated for 60 mins in presence of ATP by Z'-LYTE assay
# [15] = biological target: Proto-oncogene tyrosine-protein kinase ROS (Homo sapiens, UniProt P08922); experiment: Inhibition of recombinant human GST-tagged ROS1 cytoplasmic domain expressed in baculovirus expression system using tyrosine-2 peptide as substrate incubated for 60 mins in presence of ATP by Z'-LYTE assay
# [16] = tested on: Atrial natriuretic peptide receptor 1 (Cavia porcellus); experiment: Inhibition of guniea pig ANF at 10 uM relative to control
# Chain of DNA-dependent protein kinase catalytic subunit (P78527 whole entry): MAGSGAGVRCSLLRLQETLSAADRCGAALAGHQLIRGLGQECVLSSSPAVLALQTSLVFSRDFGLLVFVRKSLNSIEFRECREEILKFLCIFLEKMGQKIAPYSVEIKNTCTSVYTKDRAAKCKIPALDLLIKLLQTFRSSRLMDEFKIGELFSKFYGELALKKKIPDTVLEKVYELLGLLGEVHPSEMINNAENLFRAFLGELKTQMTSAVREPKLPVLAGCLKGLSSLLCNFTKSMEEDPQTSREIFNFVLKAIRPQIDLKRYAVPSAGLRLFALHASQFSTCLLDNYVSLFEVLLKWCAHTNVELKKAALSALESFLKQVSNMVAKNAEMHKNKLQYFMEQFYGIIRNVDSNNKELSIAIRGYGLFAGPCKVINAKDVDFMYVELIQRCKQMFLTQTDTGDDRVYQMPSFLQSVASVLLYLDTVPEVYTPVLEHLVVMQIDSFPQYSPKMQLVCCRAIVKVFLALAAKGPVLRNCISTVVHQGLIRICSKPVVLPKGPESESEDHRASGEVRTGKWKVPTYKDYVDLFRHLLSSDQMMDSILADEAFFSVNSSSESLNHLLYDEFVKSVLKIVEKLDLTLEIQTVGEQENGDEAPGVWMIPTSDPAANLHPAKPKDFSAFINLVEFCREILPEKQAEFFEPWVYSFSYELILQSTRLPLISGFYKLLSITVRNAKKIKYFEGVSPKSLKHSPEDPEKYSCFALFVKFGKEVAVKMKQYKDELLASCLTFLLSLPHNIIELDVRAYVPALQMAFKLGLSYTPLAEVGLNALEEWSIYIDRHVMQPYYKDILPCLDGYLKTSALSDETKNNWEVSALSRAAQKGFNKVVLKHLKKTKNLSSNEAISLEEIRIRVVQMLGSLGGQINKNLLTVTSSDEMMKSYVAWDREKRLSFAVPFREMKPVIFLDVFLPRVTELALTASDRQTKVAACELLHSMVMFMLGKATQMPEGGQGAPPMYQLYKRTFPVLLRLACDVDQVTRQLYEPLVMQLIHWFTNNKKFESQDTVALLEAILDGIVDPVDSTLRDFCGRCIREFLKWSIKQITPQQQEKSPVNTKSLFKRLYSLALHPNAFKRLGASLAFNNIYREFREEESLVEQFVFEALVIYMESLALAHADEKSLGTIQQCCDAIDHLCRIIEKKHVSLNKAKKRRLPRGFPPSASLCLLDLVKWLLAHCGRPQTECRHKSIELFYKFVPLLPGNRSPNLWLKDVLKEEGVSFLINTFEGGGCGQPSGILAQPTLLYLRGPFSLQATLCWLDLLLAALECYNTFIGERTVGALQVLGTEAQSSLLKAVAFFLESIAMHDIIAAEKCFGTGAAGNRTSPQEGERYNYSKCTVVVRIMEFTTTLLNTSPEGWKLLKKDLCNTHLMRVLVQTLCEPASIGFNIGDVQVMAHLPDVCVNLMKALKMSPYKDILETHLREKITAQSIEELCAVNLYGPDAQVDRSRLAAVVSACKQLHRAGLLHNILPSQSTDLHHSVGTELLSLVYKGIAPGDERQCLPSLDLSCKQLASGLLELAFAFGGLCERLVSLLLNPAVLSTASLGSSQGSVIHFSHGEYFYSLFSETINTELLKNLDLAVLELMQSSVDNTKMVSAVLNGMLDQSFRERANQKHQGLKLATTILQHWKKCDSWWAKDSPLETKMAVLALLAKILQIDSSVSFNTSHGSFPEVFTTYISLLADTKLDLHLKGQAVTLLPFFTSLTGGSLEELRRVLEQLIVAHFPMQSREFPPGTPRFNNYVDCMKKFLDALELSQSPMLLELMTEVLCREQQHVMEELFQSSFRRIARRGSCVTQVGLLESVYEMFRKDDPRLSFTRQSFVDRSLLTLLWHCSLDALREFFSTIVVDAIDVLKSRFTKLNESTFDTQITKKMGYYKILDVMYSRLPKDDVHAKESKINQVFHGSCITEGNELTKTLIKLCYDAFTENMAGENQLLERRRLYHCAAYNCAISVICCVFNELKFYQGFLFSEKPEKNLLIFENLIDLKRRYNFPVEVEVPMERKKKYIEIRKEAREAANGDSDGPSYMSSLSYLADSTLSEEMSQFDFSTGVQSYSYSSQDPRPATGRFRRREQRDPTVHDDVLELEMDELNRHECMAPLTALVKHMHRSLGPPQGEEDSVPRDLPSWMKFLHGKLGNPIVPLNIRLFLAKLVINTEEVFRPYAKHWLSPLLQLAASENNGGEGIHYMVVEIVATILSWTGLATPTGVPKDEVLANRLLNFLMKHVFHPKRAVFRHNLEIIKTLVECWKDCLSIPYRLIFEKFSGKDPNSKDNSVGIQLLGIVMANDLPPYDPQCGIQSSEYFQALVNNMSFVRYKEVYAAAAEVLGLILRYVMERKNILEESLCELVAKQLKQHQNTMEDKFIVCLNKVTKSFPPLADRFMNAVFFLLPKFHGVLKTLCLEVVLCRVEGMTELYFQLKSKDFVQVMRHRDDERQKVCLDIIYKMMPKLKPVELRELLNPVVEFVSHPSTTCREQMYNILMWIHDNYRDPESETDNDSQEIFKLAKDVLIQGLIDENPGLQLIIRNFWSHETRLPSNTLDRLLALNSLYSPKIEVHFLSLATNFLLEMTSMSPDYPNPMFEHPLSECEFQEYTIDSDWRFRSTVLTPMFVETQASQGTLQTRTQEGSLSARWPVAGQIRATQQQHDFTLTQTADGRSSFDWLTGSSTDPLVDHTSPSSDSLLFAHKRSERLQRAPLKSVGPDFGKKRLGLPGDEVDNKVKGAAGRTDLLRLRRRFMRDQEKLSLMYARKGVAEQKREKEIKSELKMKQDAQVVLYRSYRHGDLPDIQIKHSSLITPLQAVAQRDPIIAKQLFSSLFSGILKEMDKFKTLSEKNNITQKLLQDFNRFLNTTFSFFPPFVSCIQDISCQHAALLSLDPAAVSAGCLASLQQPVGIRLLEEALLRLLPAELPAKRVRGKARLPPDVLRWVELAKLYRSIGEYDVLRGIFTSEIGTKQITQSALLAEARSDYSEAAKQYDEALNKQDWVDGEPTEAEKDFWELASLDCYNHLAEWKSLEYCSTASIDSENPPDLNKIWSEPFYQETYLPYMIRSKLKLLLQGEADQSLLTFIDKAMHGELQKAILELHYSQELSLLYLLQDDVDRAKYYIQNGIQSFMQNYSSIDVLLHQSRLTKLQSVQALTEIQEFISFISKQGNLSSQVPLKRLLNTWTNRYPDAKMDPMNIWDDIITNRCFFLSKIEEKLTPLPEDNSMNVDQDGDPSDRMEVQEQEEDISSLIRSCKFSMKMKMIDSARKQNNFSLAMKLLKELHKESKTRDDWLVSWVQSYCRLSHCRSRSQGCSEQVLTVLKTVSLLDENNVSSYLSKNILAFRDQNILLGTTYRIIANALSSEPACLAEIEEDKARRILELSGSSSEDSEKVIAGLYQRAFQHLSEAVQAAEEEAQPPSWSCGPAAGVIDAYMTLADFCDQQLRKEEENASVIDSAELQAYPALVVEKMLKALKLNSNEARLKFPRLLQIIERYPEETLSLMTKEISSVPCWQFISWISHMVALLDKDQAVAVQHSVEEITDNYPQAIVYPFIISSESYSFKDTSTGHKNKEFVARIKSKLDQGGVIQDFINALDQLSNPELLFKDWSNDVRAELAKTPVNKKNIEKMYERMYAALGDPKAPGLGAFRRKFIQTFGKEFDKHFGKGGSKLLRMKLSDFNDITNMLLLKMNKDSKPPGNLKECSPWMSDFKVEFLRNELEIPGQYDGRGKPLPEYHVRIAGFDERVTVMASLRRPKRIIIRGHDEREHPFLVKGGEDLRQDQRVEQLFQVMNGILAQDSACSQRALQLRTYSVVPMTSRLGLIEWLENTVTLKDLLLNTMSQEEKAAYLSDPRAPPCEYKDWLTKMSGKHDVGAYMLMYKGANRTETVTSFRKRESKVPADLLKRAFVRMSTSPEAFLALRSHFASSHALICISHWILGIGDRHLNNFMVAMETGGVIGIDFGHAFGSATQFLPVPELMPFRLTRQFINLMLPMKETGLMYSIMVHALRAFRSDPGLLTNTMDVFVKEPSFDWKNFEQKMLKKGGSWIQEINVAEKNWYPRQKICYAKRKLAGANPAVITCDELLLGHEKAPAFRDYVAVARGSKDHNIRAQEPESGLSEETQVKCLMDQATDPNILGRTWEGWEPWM
# Chain of Calcium/calmodulin-dependent protein kinase type II subunit beta (Q13554 whole entry, the tested form may be a part): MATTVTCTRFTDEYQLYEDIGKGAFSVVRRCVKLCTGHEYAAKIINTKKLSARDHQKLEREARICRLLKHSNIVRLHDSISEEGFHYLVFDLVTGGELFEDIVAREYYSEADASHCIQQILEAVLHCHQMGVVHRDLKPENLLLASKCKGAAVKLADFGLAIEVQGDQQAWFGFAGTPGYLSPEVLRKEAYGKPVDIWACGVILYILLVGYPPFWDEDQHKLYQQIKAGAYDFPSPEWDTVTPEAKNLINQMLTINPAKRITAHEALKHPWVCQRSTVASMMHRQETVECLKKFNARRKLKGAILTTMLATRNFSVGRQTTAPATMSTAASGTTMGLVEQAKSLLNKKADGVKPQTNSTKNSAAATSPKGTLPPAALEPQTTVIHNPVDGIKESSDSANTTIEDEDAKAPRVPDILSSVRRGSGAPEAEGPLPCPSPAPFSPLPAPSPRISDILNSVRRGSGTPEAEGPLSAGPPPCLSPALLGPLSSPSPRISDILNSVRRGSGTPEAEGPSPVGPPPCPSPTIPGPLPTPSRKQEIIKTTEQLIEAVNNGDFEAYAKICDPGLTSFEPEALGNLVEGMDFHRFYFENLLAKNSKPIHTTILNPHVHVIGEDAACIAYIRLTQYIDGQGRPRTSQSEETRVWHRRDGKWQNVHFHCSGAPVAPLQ
# Chain of Caspase-8 (Homo sapiens) (Q14790 217-374 limits assumed): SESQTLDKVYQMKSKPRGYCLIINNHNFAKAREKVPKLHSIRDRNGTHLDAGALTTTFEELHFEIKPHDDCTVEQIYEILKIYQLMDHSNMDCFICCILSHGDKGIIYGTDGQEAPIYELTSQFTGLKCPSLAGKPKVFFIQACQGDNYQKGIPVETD
# Chain of Caspase-8 (Homo sapiens) (Q14790 385-479 limits assumed): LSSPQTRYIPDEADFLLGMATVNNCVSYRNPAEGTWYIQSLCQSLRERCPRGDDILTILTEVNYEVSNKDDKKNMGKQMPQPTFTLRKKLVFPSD
compound,measurement,setting,value
C[C@@H]1C[C@H]1C(=O)N1CCN(c2cnc(C#N)c(-c3cnn(C)c3)n2)C[C@H]1C,IC50,[1],65 nM
same,half-life,[2],174 min
same,inhibition,[3],13%
same,IC50,[4],> 100 µM
same,IC50,Ephrin type-B receptor 1,37.7 µM
same,IC50,Misshapen-like kinase 1,25.6 µM
same,IC50,[5],< 10 nM
same,inhibition,[6],-1%
same,inhibition,[7],11%
same,inhibition,Rattus norvegicus,14%
same,inhibition,[8],-7%
same,inhibition,Caspase-8 (Homo sapiens),2%
same,IC50,[9],> 100 µM
same,IC50,[10],> 100 µM
same,IC50,[11],> 100 µM
same,IC50,[12],> 100 µM
same,IC50,[13],> 100 µM
same,IC50,[14],> 100 µM
same,IC50,[15],> 100 µM
same,inhibition,[16],8%
